Structures can show the parent of a compound that is named as a salt.
Key:
[1] = target: T1, ADRB2 W158A mutant (Homo sapiens, UniProt P07550, W158A); assay: Trafficking assay: β-galactosidase enzyme fragment complementation, ADRB2 W158A-ProLink with endosome-localized EA; type: cell-based; details: compound 10 μM; signal of test well divided by signal of buffer-only control wells
T1 construct: expressed in transfected cells
Text: The ADRB2 is a G-protein coupled receptor containing seven transmembrane regions. It was been shown that mutation of W158 to alanine can cause retention of the protein in the endoplasmic reticulum. Contacting the receptor with small molecules that bind to ADRB2 results in enhanced movement of the protein to the plasma membrane and endosomal compartments.
The first fusion protein used comprises the target peptide (ADRB2W158A-PK) and the first fragment of complementation assay. This construct includes the W158 to alanine mutation. The second fusion protein used comprises endosome localized protein and the second fragment of complementation assay.
(§1) The cells were lysed and the complemented activity was measured using a chemiluminescent b-galactosidase substrate. The values of each well containing a test compound was divided by the signal obtained from the control wells that received only buffer.

[2] = system: ADRB2 W158A; assay: Arrestin activity assay; type: cell-based; details: compound 10 μM; signal of test well divided by signal of buffer-only control wells
Method: as §1

[3] = target: ADRB2 (Homo sapiens, UniProt P07550); assay: cAMP activity assay (Gs ADRB2); type: cell-based; details: compound 10 μM; signal of test well divided by signal of buffer-only control wells
Method: as §1

[4] = target: KCNH2 (hERG) mutant, Kv11.1 potassium ion channel (Homo sapiens, UniProt Q12809); details: KCNH2 mutant-PK cells, overnight, FIG. 5 curve fit
Method: A single-point mutation is introduced in KCNH2. The second fusion protein used comprises plasma membrane localized protein and the second fragment of complementation assay. The second fragment of complementation assay was localized to the plasma membrane by fusing it to PH domain of phospholipase C gamma.
In this experiment, cells expressing the KCNH2 mutant fused to the first fragment of complementation assay (ProLink™ peptide) and the plasma membrane localized EA were treated with a variety of compounds that bind to the ion channel.
Binding of ligand leads to stabilization (“rescue”) and transport of the protein to the membrane.—PLC(PH)-EA anchors to the membrane. […] The assay is run overnight.

[5] = target: KCNH2 (hERG) mutant, Kv11.1 potassium ion channel (Homo sapiens, UniProt Q12809, form not given); assay: in vitro
[6] = target: T2, AVPR2 (Arginine vasopressin receptor 2) (Homo sapiens, UniProt P30518); assay: Trafficking of AVPR2 target peptide by complementation; type: cell-based
T2 construct: expressed in transfected cells
Text: (§2) In a model of retinitis, the rhodopsin GPCR was tagged with an ED, and its translocation was studied in response to addition of 9-cis retinol. […] Also, AVPR2 (Arginine vasopressin receptor 2), a GPCR for which antagonists are used therapeutically, was studied with SR49059, a small molecule vasopressin V1a receptor antagonist. […] More than 200 mutations in the AVPR2 gene have been identified in people with nephrogenic diabetes insipidus. Most of these mutations cause the vasopressin V2 receptor protein to be misfolded into an incorrect 3-dimensional shape. Thus the present assay finds particular applicability in identifying compounds that bind to the AVPR2 gene product in the case of a misfolding mutation which occurs in humans.

[7] = system: rhodopsin GPCR; assay: Translocation of ED-tagged rhodopsin GPCR by complementation (model of retinitis); type: cell-based
Text: as §2

T2 sequence (P30518 whole entry): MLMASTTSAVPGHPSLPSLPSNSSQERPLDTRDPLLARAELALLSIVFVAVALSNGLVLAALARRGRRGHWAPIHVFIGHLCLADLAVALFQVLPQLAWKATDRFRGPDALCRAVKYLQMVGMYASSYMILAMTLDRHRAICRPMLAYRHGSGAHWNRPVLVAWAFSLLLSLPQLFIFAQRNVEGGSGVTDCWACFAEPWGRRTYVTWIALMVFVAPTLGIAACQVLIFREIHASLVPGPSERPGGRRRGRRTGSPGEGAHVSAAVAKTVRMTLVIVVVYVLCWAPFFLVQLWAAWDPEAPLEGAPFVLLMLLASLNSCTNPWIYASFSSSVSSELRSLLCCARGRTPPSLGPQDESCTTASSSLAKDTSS

| SMILES | Trafficking 5-EA ADRB2 S/B [1] | Arrestin W158A S/B [2] | cAMP Gs ADRB2 S/B [3] | further results |
| --- | --- | --- | --- | --- |
| CC(C)(C)NCC(O)COc1cccc2[nH]c(C#N)cc12.CC(C)(C)NCC(O)COc1cccc2[nH]c(C#N)cc12.O=C(O)/C=C/C(=O)O (stereo not drawn) [(—)-Cyanopindolol hemifumarate] | 17.1 | 1.0 | 1.8 |  |
| O=C(CCCN1CCC(O)(c2ccc(Cl)cc2)CC1)c1ccc(F)cc1 [Haloperidol] |  |  |  | BOTTOM [4]: 7500; HILLSLOPE [4]: 0.5120; LOGEC50 [4]: −1.815; TOP [4]: 537564; EC50 [5]: 15.3 mM |
| CC(C)(C)NC[C@H](O)COc1nsnc1N1CCOCC1.O=C(O)/C=C\C(=O)O [(S)-Timolol maleate] |  | 0.9 |  |  |
| CC(C)NCC(O)COc1cccc2ccccc12 (stereo not drawn) [Propanolol HCl] |  | 0.9 |  |  |
| COc1ccc(S(=O)(=O)N2c3ccc(Cl)cc3[C@](O)(c3ccccc3Cl)[C@@H]2C(=O)N2CCC[C@H]2C(N)=O)cc1OC [SR49059] |  |  |  | dose response of AVPR2 trafficking to compound (result in words) [6]: dose response curve was obtained |
| COc1ccccc1N1CCN(CC(O)COc2cccc3ccccc23)CC1.Cl.Cl (stereo not drawn) [Naftopidil 2HCl] | 6.8 | 1.0 | 1.0 |  |
| CCC(NC(C)C)C(O)c1ccc(O)c2[nH]c(=O)ccc12 (stereo not drawn) [Procaterol HCl] | 78.2 | 21.3 | 15.2 |  |
| CC1=C(/C=C/C(C)=C\C=C\C(C)=C\CO)C(C)(C)CCC1 [9-cis retinol] |  |  |  | translocation of ED-tagged rhodopsin in response to compound (result in words) [7]: dose-response curve showed sensitive results |
